Reference: paper PMC8080777, “Discovery, optimization, and evaluation of non-bile acid FXR/TGR5 dual agonists” (Scientific Reports, 2021)
pEC50: −log10 of the molar value.

Molecular target: T1, FXR (Homo sapiens, UniProt Q96RI1)
T1 construct: host or cells: CHO cells
T1 sequence (Q96RI1 1-486): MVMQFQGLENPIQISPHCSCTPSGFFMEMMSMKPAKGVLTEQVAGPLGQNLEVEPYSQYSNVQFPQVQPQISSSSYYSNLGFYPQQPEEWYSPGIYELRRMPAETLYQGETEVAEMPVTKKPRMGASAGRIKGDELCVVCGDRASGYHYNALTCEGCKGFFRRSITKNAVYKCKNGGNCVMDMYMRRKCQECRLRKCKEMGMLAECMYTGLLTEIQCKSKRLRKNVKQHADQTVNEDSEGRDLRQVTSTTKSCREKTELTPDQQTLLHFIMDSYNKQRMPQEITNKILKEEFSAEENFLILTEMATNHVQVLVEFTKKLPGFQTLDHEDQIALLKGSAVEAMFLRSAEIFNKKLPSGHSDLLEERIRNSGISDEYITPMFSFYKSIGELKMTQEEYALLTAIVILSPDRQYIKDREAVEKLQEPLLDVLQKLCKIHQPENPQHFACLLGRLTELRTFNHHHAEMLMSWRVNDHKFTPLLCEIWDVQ
Assay: CHO cell-based FXR luciferase reporter assay (Indigo Biosciences)
Details: for pEC50: 4 parameter logistic fit; for Emax: CHO

Compound | FXR agonist activity (in words) | FXR Efficacy (%) (0.1 µM) (% vs OCA 1 µM as 100%) | FXR Efficacy (%) (1 µM) (% vs OCA 1 µM as 100%) | pEC50 | Emax [%] | FXR Efficacy (%) (10 µM) (10 µM, % vs OCA 1 µM as 100%)
COc1cc(Cl)cc(N(CC23CCC(c4ccc(OC)c(C#N)c4)(CC2)CC3)C(=O)c2ccncc2C)c1 [Compound 20p] | strong dual agonist potencies | 57.1 | 98.8 | 6.72 | 28 | –
COC(=O)/C=C/c1cccc(N(Cc2ccc(-c3ccc(N(C)C)cc3)cc2)C(=O)C2CCCCC2)c1 [Compound 7, Fexaramine, reference compound] | – | 12.8 | 96.6 | – | – | 130.9
COc1ccc(C23CCC(CN(C(=O)c4ccncc4C)c4cc(Cl)cc(Cl)c4)(CC2)CC3)cc1C#N [Compound 20q] | strong dual agonist potencies | 85.7 | 79.6 | 7.10 | 33 | –
